The record followed here is US7662824B2, “Acylhydrazones as kinase modulators” (Janssen Pharmaceutica NV, priority 2005, dated 2010).

One data set in a line: Aqueous solubility assay. Conditions: water with 0.4% DMSO, kinetic from dmso stock.
Data set [1] concerns the target T1, c-Met (Homo sapiens, UniProt P08581). Nature of the data set: Fluorescence polarization assay on the kinase activity of c-Met. Set-up: The c-Met kinase domain consists amino acid 1046-1390 of the c-Met protein; made in house; host or cells: Sf9 insect cells with baculovirus. As to conditions: 6H-TEV-cMet, poly Gly4Tyr substrate, 10 μM ATP; read-out: c-Met FP Enz IC50. It counts as biochemical. From the text:
A fluorescence polarization assay (FP) was developed for screening of compounds that decreases the kinase activity of c-Met.
A protein (6H-TEV-cMet) comprising c-Met kinase domain was cloned, recombinantly expressed and purified following a procedure similar to that as described in Example A. The protein comprises a His tag consisting of six histidines at its N-terminal, a TEV protease cleavage site, and the c-Met kinase domain. The c-Met kinase domain consists amino acid 1046-1390 of the c-Met protein as listed in GenBank protein accession number P08581.
For the c-Met kinase assay, the 6H-TEV-cMet was used as the enzyme, and a poly Gly4Tyr peptide (Sigma, P-0275) was used as the substrate. The kinase reaction was performed in a volume of 10 μl in HE microplates (LJL Biosystems). Assay conditions were as follows: 100 mM HEPES pH 7.5, 0.01% Tween-20, 1 mM DTT, 5 mM MgCl2, 10 μM ATP, 10 μg/ml poly Gly4Tyr. The kinase reaction was initiated upon addition of 10 nM 6H-TEV-cMet. After a 12 minute incubation at room temperature the reaction was terminated with […] 50 mM EDTA.
Phosphorylation of the peptide substrate was detected with PanVera Tyrosine Kinase Assay Kit, Green reagents (P2837). Five minutes after the addition of EDTA, 10 μl of antibody/tracer mix (Pan Vera reagents, 1:1:3 dilution of antibody: Tracer: FP dilution buffer, Cat. # P2837) was added to each well. Plates were allowed to incubate for 30 minutes at room temperature and fluorescence polarization was measured with an LJL Analyst instrument (Molecular Devices; Sunnyvale, Calif.) with excitation=485 nm filter and emission=530 nm filter. IC50 values were calculated from triplicate sets of data using Graphpad Prism software (Graphpad Software; San Diego, Calif.).
Target sequence in this assay (P08581 1046-1390): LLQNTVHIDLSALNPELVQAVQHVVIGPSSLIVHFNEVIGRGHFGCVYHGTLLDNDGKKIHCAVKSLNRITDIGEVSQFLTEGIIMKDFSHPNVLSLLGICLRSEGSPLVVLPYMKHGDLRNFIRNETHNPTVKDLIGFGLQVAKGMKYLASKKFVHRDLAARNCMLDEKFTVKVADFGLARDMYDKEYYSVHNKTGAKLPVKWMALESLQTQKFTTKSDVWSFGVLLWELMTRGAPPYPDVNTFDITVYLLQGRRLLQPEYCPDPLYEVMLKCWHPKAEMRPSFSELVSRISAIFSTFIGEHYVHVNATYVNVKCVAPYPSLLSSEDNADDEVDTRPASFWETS
Background: In fluorescence polarisation assays a small probe gives low polarisation when free and higher when bound to something large.

The target in data set [2] is T1, c-Met. In words: Delfia autophosphorylation kinase assay on the c-Met. Format: biochemical. Also noted: The purified His6 tagged cytoplasmic domain of c-Met was diluted to a concentration of 500 ng/ml; made in house; host or cells: Sf9 insect cells with recombinant baculovirus; Large-scale expression and purification were done by the contract lab Pan Vera. As to conditions: His6 tagged cytoplasmic domain of c-Met, 1 μM ATP; read-out: c-Met Delfia Autophos IC50. The protocol: This example describes the cloning, expression, and purification of the cytoplasmic domain of c-Met which has the c-Met receptor tyrosine kinase activity.
A DELFIA time resolved fluorescence assay was developed for screening of compounds that decreases the autophosphorylation thus the kinase activity of c-Met.
The DELFIA assay is non-radioactive. The autophophorylation of the c-Met is measured by an anti-phosphotyrosine antibody coupled to an Europium tag.
A major advantage of this format is that it allowed for the development of an autophosphorylation assay using Ni-chelate plates which bind the hexa-his tag on the recombinant Met kinase. Autophosphorylation assay allows to use a known substrate, Met kinase itself, for the phosphorylation. The DELFIA Met autophosphorylation assay is very sensitive with a signal to noise ratio in excess of 50:1.
The assay procedure for screening is as follows. The purified His6 tagged cytoplasmic domain of c-Met was diluted to a concentration of 500 ng/ml in enzyme dilution buffer (50 mM Tris-HCl, pH8.0, 0.1% BSA) and dispensed to assay plates at a volume of 50 μl per well. Black opaque HisGrab Nickel coated 96 well plates (Pierce, Rockford, Ill.) were selected to run the assay. Next, 2.5 μl of compound in 40% DMSO was added to test wells, 2.5 μl of 40% DMSO only was added to the negative control wells. The autophosphorylation reaction was initiated upon the addition of 50 μl of reaction buffer, 50 mM Tris-HCl, pH 8.0, 10 mM MgCl2, 0.1 mM Na3VO4, 1 mM DTT, 1 μM ATP. Plates were incubated at room temperature for 1 hour followed by 2 washes with 200 μl/well of PBS. Europium conjugated anti-phosphotyrosine antibody, Eu-PY20 from Perkin Elmer was diluted to 50 ng/ml in Delfia AB buffer (Perkin Elmer, Boston, Mass.), added to the 96 well assay plates at a volume of […], and incubated at room temperature for 2 hours. Assay plates were then washed 4 times each with 200 μl/well of Delfia wash buffer (Perkin Elmer). After the final wash 150 μl of Delfia Enhancement solution (Perkin Elmer) was added to each well of the assay plate and incubated at room temperature for 1 hour. Plates were read on an LJL Analyst instrument (Molecular Devices; Sunnyvale, Calif.) with filter settings of 360 excitation, 620 emission, and 410 dichroic. IC50 values were calculated using Graphpad Prism software (Graphpad Software; San Diego, Calif.).
Target sequence in this assay (P08581 956-1390 limits assumed): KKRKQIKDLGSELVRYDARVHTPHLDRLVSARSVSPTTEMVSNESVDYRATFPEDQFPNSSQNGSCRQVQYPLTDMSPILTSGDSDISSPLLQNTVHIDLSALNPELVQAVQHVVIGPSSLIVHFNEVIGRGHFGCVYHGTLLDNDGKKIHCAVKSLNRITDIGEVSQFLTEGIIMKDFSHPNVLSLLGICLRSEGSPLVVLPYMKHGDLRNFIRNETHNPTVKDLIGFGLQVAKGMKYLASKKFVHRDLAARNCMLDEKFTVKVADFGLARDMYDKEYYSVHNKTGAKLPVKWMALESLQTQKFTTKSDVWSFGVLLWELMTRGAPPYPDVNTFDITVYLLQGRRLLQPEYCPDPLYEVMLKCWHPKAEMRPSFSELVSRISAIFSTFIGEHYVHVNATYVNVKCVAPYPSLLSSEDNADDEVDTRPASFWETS

Broadly, the solubility is the concentration that dissolves in the medium under given conditions. A word on the IC50: it is the concentration at which inhibition is half-maximal.

Structures are written as SMILES. Converted amounts (≈) assume the structure as drawn.

Procedure for Aqueous solubility assay: Water, PBS and aqueous HCl at pH2 having a final DMSO content of 0.4%, with the final DMSO concentration reaching 40 μM. Samples were placed in the incubator and shaken for 15 minutes.

Compound `O=C(Cc1ccc2c(c1)CCO2)N/N=C1\C(=O)Nc2cc(C(=O)NCCN3CCOCC3)ccc21` [Example 3, 3-[(2-2,3-Dihydro-benzofuran-5-yl-acetyl)-hydrazono]-2-oxo-2,3-dihydro-1H-indole-6-carboxylic acid(2-morpholin-4-yl-ethyl)-amide] displayed a solubility at 15 min in “Aqueous solubility assay” of 38.1 µM (≈ 18.2 µg/mL). Besides, the IC50 at c-Met [1] and on c-Met [2] was 24 nM each time.

Compound `O=C(Cc1ccc2c(c1)CCO2)N/N=C1\C(=O)Nc2cc(C(=O)NCCN3CCOCC3)cc(Br)c21` [Example 6, 4-Bromo-3-[(2-2,3-dihydro-benzofuran-5-yl-acetyl)-hydrazono]-2-oxo-2,3-dihydro-1H-indole-6-carboxylic acid (2-morpholin-4-yl-ethyl)-amide] had a solubility at 15 min in “Aqueous solubility assay” of 44 µM (≈ 24.5 µg/mL). Moreover, the half-maximal inhibitory concentration (IC50) on c-Met [1] and on c-Met [2] was 5 nM throughout.
